{
  "source": "patent US20240376163A1",
  "about": "“PEPTIDE FOR INHIBITING CALCINEURIN AND USE THEREOF” (Seoul National University R&DB Foundation, priority 2023, published 2024)",
  "test_system": "Jurkat T cells",
  "experiment": "mRNA sequencing of activated Jurkat T cells",
  "assay_type": "cell-based, human",
  "details": "P + I",
  "data": [
    {"smiles": "C=CC[C@@H]1/C=C(\\C)C[C@H](C)C[C@H](OC)[C@H]2O[C@@](O)(C(=O)C(=O)N3CCCC[C@H]3C(=O)O[C@H](/C(C)=C/[C@@H]3CC[C@@H](O)[C@H](OC)C3)[C@H](C)[C@@H](O)CC1=O)[C@H](C)C[C@@H]2OC", "note": "[FK506, Tacrolimus, reference compound]", "values": [
      {"measurement": "SMAD1 FPKM", "setting": "Jurkat T cells", "value": 4.873, "unit": "FPKM"},
      {"measurement": "SMOX FPKM", "setting": "Jurkat T cells", "value": 14.9, "unit": "FPKM"},
      {"measurement": "SMPD1 FPKM", "setting": "Jurkat T cells", "value": 20.599, "unit": "FPKM"},
      {"measurement": "SORBS1 FPKM", "setting": "Jurkat T cells", "value": 0.4, "unit": "FPKM"},
      {"measurement": "SOX4 FPKM", "setting": "Jurkat T cells", "value": 76.17, "unit": "FPKM"},
      {"measurement": "SPINT1 FPKM", "setting": "Jurkat T cells", "value": 1.948, "unit": "FPKM"},
      {"measurement": "SPRY1 FPKM", "setting": "Jurkat T cells", "value": 4.074, "unit": "FPKM"},
      {"measurement": "SPRY4 FPKM", "setting": "Jurkat T cells", "value": 9.613, "unit": "FPKM"},
      {"measurement": "SPSB1 FPKM", "setting": "Jurkat T cells", "value": 10.137, "unit": "FPKM"},
      {"measurement": "SPTBN2 FPKM", "setting": "Jurkat T cells", "value": 2.135, "unit": "FPKM"},
      {"measurement": "SRGN FPKM", "setting": "Jurkat T cells", "value": 10.812, "unit": "FPKM"},
      {"measurement": "SSBP2 FPKM", "setting": "Jurkat T cells", "value": 7.127, "unit": "FPKM"},
      {"measurement": "ST3GAL6 FPKM", "setting": "Jurkat T cells", "value": 4.018, "unit": "FPKM"},
      {"measurement": "STAT2 FPKM", "setting": "Jurkat T cells", "value": 37.805, "unit": "FPKM"},
      {"measurement": "STAT3 FPKM", "setting": "Jurkat T cells", "value": 83.385, "unit": "FPKM"},
      {"measurement": "STAU2 FPKM", "setting": "Jurkat T cells", "value": 7.124, "unit": "FPKM"},
      {"measurement": "STMN3 FPKM", "setting": "Jurkat T cells", "value": 10.423, "unit": "FPKM"},
      {"measurement": "STX1A FPKM", "setting": "Jurkat T cells", "value": 16.1, "unit": "FPKM"},
      {"measurement": "SYK FPKM", "setting": "Jurkat T cells", "value": 7.044, "unit": "FPKM"},
      {"measurement": "TAGAP FPKM", "setting": "Jurkat T cells", "value": 4.352, "unit": "FPKM"},
      {"measurement": "TAL1 FPKM", "setting": "Jurkat T cells", "value": 22.337, "unit": "FPKM"},
      {"measurement": "TAP2 FPKM", "setting": "Jurkat T cells", "value": 5.187, "unit": "FPKM"},
      {"measurement": "TAPBPL FPKM", "setting": "Jurkat T cells", "value": 19.59, "unit": "FPKM"},
      {"measurement": "TBC1D4 FPKM", "setting": "Jurkat T cells", "value": 12.549, "unit": "FPKM"},
      {"measurement": "TBC1D5 FPKM", "setting": "Jurkat T cells", "value": 4.088, "unit": "FPKM"},
      {"measurement": "TBKBP1 FPKM", "setting": "Jurkat T cells", "value": 16.894, "unit": "FPKM"},
      {"measurement": "TCF3 FPKM", "setting": "Jurkat T cells", "value": 39.165, "unit": "FPKM"},
      {"measurement": "TCF7 FPKM", "setting": "Jurkat T cells", "value": 13.065, "unit": "FPKM"},
      {"measurement": "TCF12 FPKM", "setting": "Jurkat T cells", "value": 34.798, "unit": "FPKM"},
      {"measurement": "TDRD9 FPKM", "setting": "Jurkat T cells", "value": 1.245, "unit": "FPKM"},
      {"measurement": "TGFBR2 FPKM", "setting": "Jurkat T cells", "value": 36.615, "unit": "FPKM"},
      {"measurement": "THEM6 FPKM", "setting": "Jurkat T cells", "value": 3.232, "unit": "FPKM"},
      {"measurement": "THEMIS FPKM", "setting": "Jurkat T cells", "value": 33.406, "unit": "FPKM"},
      {"measurement": "TIAF1 FPKM", "setting": "Jurkat T cells", "value": 12.479, "unit": "FPKM"},
      {"measurement": "TIAM1 FPKM", "setting": "Jurkat T cells", "value": 8.466, "unit": "FPKM"},
      {"measurement": "TIAM2 FPKM", "setting": "Jurkat T cells", "value": 0.27, "unit": "FPKM"},
      {"measurement": "TLE1 FPKM", "setting": "Jurkat T cells", "value": 1.864, "unit": "FPKM"},
      {"measurement": "TMCC3 FPKM", "setting": "Jurkat T cells", "value": 4.527, "unit": "FPKM"},
      {"measurement": "TNFAIP3 FPKM", "setting": "Jurkat T cells", "value": 25.168, "unit": "FPKM"},
      {"measurement": "TNFRSF10B FPKM", "setting": "Jurkat T cells", "value": 25.474, "unit": "FPKM"},
      {"measurement": "TNFSF10 FPKM", "setting": "Jurkat T cells", "value": 24.883, "unit": "FPKM"},
      {"measurement": "TNFSF14 FPKM", "setting": "Jurkat T cells", "value": 1.023, "unit": "FPKM"},
      {"measurement": "TPM4 FPKM", "setting": "Jurkat T cells", "value": 202.311, "unit": "FPKM"},
      {"measurement": "TPST2 FPKM", "setting": "Jurkat T cells", "value": 21.077, "unit": "FPKM"},
      {"measurement": "TRAF3IP3 FPKM", "setting": "Jurkat T cells", "value": 15.012, "unit": "FPKM"},
      {"measurement": "TRIB1 FPKM", "setting": "Jurkat T cells", "value": 5.422, "unit": "FPKM"},
      {"measurement": "TRIM21 FPKM", "setting": "Jurkat T cells", "value": 45.856, "unit": "FPKM"},
      {"measurement": "TTLL1 FPKM", "setting": "Jurkat T cells", "value": 3.69, "unit": "FPKM"},
      {"measurement": "UBE2L6 FPKM", "setting": "Jurkat T cells", "value": 164.565, "unit": "FPKM"},
      {"measurement": "UHRF1 FPKM", "setting": "Jurkat T cells", "value": 8.288, "unit": "FPKM"},
      {"measurement": "VAMP1 FPKM", "setting": "Jurkat T cells", "value": 14.793, "unit": "FPKM"},
      {"measurement": "VAT1 FPKM", "setting": "Jurkat T cells", "value": 44.696, "unit": "FPKM"},
      {"measurement": "VAV1 FPKM", "setting": "Jurkat T cells", "value": 30.218, "unit": "FPKM"},
      {"measurement": "WARS FPKM", "setting": "Jurkat T cells", "value": 105.541, "unit": "FPKM"},
      {"measurement": "WDR76 FPKM", "setting": "Jurkat T cells", "value": 8.368, "unit": "FPKM"},
      {"measurement": "XCL1 FPKM", "setting": "Jurkat T cells", "value": 0, "unit": "FPKM"},
      {"measurement": "XCL2 FPKM", "setting": "Jurkat T cells", "value": 0, "unit": "FPKM"},
      {"measurement": "XIRP1 FPKM", "setting": "Jurkat T cells", "value": 6.348, "unit": "FPKM"},
      {"measurement": "XRCC6BP1 FPKM", "setting": "Jurkat T cells", "value": 9.744, "unit": "FPKM"},
      {"measurement": "YPEL1 FPKM", "setting": "Jurkat T cells", "value": 5.628, "unit": "FPKM"},
      {"measurement": "ZFP36L1 FPKM", "setting": "Jurkat T cells", "value": 153.648, "unit": "FPKM"},
      {"measurement": "ZFP36L2 FPKM", "setting": "Jurkat T cells", "value": 13.343, "unit": "FPKM"},
      {"measurement": "ZNF280D FPKM", "setting": "Jurkat T cells", "value": 2.345, "unit": "FPKM"},
      {"measurement": "ZNF367 FPKM", "setting": "Jurkat T cells", "value": 2.354, "unit": "FPKM"},
      {"measurement": "ZNF480 FPKM", "setting": "Jurkat T cells", "value": 7.174, "unit": "FPKM"},
      {"measurement": "ZNF521 FPKM", "setting": "Jurkat T cells", "value": 2.011, "unit": "FPKM"},
      {"measurement": "ZNF652 FPKM", "setting": "Jurkat T cells", "value": 2.631, "unit": "FPKM"},
      {"measurement": "ZNF704 FPKM", "setting": "Jurkat T cells", "value": 0.014, "unit": "FPKM"},
      {"measurement": "ZNF827 FPKM", "setting": "Jurkat T cells", "value": 1.521, "unit": "FPKM"},
      {"measurement": "ZNFX1 FPKM", "setting": "Jurkat T cells", "value": 16.708, "unit": "FPKM"},
      {"measurement": "ZP4 FPKM", "setting": "Jurkat T cells", "value": 0.462, "unit": "FPKM"},
      {"measurement": "ZYX FPKM", "setting": "Jurkat T cells", "value": 127.794, "unit": "FPKM"},
      {"measurement": "ADORA2A FPKM", "value": 0.998, "unit": "FPKM"},
      {"measurement": "AGK FPKM", "value": 14.029, "unit": "FPKM"},
      {"measurement": "ARHGEF3 FPKM", "value": 8.637, "unit": "FPKM"},
      {"measurement": "ASAP1 FPKM", "value": 7.765, "unit": "FPKM"},
      {"measurement": "ATG14 FPKM", "value": 7.863, "unit": "FPKM"},
      {"measurement": "ATP6V1B2 FPKM", "value": 50.672, "unit": "FPKM"},
      {"measurement": "BCL2L1 FPKM", "value": 39.402, "unit": "FPKM"},
      {"measurement": "C3 FPKM", "value": 0.489, "unit": "FPKM"},
      {"measurement": "C10orf54 FPKM", "value": 0.382, "unit": "FPKM"},
      {"measurement": "CABP1 FPKM", "value": 1.201, "unit": "FPKM"},
      {"measurement": "CCDC64 FPKM", "value": 10.044, "unit": "FPKM"},
      {"measurement": "CCL1 FPKM", "value": 0, "unit": "FPKM"},
      {"measurement": "CCL3 FPKM", "value": 0, "unit": "FPKM"},
      {"measurement": "CCL3L1 FPKM", "value": 0, "unit": "FPKM"},
      {"measurement": "CCL3L3 FPKM", "value": 0, "unit": "FPKM"},
      {"measurement": "CCL4 FPKM", "value": 0, "unit": "FPKM"},
      {"measurement": "CCL4L1 FPKM", "value": 0.087, "unit": "FPKM"},
      {"measurement": "CCL4L2 FPKM", "value": 0.087, "unit": "FPKM"},
      {"measurement": "CCL20 FPKM", "value": 0, "unit": "FPKM"},
      {"measurement": "CCND2 FPKM", "value": 0.558, "unit": "FPKM"},
      {"measurement": "CD27-AS1 FPKM", "value": 5.11, "unit": "FPKM"},
      {"measurement": "CD27 FPKM", "value": 3.098, "unit": "FPKM"},
      {"measurement": "CD55 FPKM", "value": 6.015, "unit": "FPKM"},
      {"measurement": "CD70 FPKM", "value": 3.005, "unit": "FPKM"},
      {"measurement": "CD97 FPKM", "value": 19.394, "unit": "FPKM"},
      {"measurement": "CD200 FPKM", "value": 0, "unit": "FPKM"},
      {"measurement": "COL27A1 FPKM", "value": 4.463, "unit": "FPKM"},
      {"measurement": "CREB5 FPKM", "value": 0.577, "unit": "FPKM"}
    ]}
  ]
}
